Measured values taken from patent US7109193B2, “Tricyclic diazepines tocolytic oxytocin receptor antagonists” (Wyeth, priority 2001, dated 2006).

Molecular target: T1, human vasopressin V2 receptor subtype (Homo sapiens, UniProt P30518)
T1 construct: host or cells: CHO cells (pZeoSV vector)
Experiment: Vasopressin binding in Chinese Hamster Ovary cell membranes expressing human vasopressin V2 subtype receptors
Conditions: 100 nM, CHO cell membranes, [3H]arginine vasopressin, values without parentheses
Outline: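 Radioligand displacement on membranes from CHO cells stably expressing human V2 receptor, 25 to 50 μg protein/well, in 50 mM Tris-HCl pH 7.4 with MgCl2, BSA and protease inhibitors. [^3H]arginine vasopressin (8 nM working solution) incubated 60 min at room temperature; bound label measured by filtration and scintillation counting.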

T1 sequence (P30518 whole entry): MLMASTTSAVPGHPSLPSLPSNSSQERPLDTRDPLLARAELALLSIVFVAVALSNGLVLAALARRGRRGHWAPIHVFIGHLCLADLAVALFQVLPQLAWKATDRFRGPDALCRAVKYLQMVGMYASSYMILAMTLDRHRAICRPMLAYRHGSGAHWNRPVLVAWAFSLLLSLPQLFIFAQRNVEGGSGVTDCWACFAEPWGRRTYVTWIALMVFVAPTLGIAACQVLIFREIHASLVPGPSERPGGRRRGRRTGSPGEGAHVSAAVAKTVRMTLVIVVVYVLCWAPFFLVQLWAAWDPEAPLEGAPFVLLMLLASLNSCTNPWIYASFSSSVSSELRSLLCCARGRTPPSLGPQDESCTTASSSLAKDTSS

SMILES	inhibition at 0.1 µM
Cc1cc(C(=O)N2Cc3ccc(C(=O)N(C)C4CCN(C)CC4)n3Cc3ccccc32)ccc1-c1ccccc1C(F)(F)F [Example 184, N-Methyl-N-(1-methyl-4-piperidinyl)-10-{[2-methyl-2′-(trifluoromethyl)[1,1′-biphenyl]-4-yl]carbonyl}-10,11-dihydro-5H-pyrrolo[2,1-c][1,4]benzodiazepine-3-carboxamide]	9%
COc1cccc(-c2ccc(C(=O)N3Cc4ccc(C(=O)NCCC5CCCN5C)n4Cc4ccccc43)cc2OC)c1 (stereo not shown) [Example 172, 10-[(2,3′-Dimethoxy[1,1′-biphenyl]-4-yl)carbonyl]-N-[2-(1-methyl-2-pyrrolidinyl)ethyl]-10,11-dihydro-5H-pyrrolo[2,1-c][1,4]benzodiazepine-3-carboxamide]	11%
COc1cccc(-c2cc(OC)c(C(=O)N3Cc4ccc(C(=O)NCCC5CCCN5C)n4Cc4ccccc43)cc2Cl)c1 (stereo not shown) [Example 169, 10-[(6-Chloro-3,3′-dimethoxy[1,1′-biphenyl]-4-yl)carbonyl]-N-[2-(1-methyl-2-pyrrolidinyl)ethyl]-10,11-dihydro-5H-pyrrolo[2,1-c][1,4]benzodiazepine-3-carboxamide]	5%
COc1cc(C(=O)N2Cc3ccc(C(=O)NCCN4CCCCC4)n3Cc3ccccc32)ccc1-c1cccc2ccccc12 [Example 157, 10-[3-Methoxy-4-(1-naphthyl)benzoyl]-N-[2-(1-piperidinyl)ethyl]-10,11-dihydro-5H-pyrrolo[2,1-c][1,4]benzodiazepine-3-carboxamide]	23%
Cc1ccccc1-c1ccc(C(=O)N2Cc3ccc(C(=O)N4CCN(CCN(C)C)CC4)n3Cc3ccccc32)cc1 [Example 200, {4-[2-(Dimethylamino)ethyl]-1-piperazinyl}{10-[(2′-methyl[1,1′-biphenyl]-4-yl)carbonyl]-10,11-dihydro-5H-pyrrolo[2,1-c][1,4]benzodiazepin-3-yl}methanone]	10%
C=CCN1CCN(C(=O)c2ccc3n2Cc2ccccc2N(C(=O)c2ccc(-c4ccccc4OC)c(C)c2)C3)CC1 [Example 222, (4-Allyl-1-piperazinyl){10-[(2′-methoxy-2-methyl[1,1′-biphenyl]-4-yl)carbonyl]-10,11-dihydro-5H-pyrrolo[2,1-c][1,4]benzodiazepin-3-yl}methanone]	1%
COc1cccc(-c2cc(OC)c(C(=O)N3Cc4ccc(C(=O)N(C)C5CCN(C)C5)n4Cc4ccccc43)cc2Cl)c1 (stereo not shown) [Example 191, 10-[(6-Chloro-3,3′-dimethoxy[1,1′-biphenyl]-4-yl)carbonyl]-N-methyl-N-(1-methyl-3-pyrrolidinyl)-10,11-dihydro-5H-pyrrolo[2,1-c][1,4]benzodiazepine-3-carboxamide]	17%
COc1ccccc1-c1ccc(C(=O)N2Cc3ccc(C(=O)N(C)C4CCN(C)C4)n3Cc3ccccc32)cc1OC (stereo not shown) [Example 193, 10-[(2,2′-Dimethoxy[1,1′-biphenyl]-4-yl)carbonyl]-N-methyl-N-(1-methyl-3-pyrrolidinyl)-10,11-dihydro-5H-pyrrolo[2,1-c][1,4]benzodiazepine-3-carboxamide]	16%
COc1ccccc1-c1ccc(C(=O)N2Cc3ccc(C(=O)N4CCN(C(C)C)CC4)n3Cc3ccccc32)cc1 [Example 234, (4-Isopropyl-1-piperazinyl){10-[(2′-methoxy[1,1′-biphenyl]-4-yl)carbonyl]-10,11-dihydro-5H-pyrrolo[2,1-c][1,4]benzodiazepin-3-yl}methanone]	22%
CN(C)CCN1CCN(C(=O)c2ccc3n2Cc2ccccc2N(C(=O)c2ccc(-c4cccc5ccccc45)cc2Cl)C3)CC1 [Example 205, {10-[2-Chloro-4-(1-naphthyl)benzoyl]-10,11-dihydro-5H-pyrrolo[2,1-c][1,4]benzodiazepin-3-yl}{4-[2-(dimethylamino)ethyl]-1-piperazinyl}methanone]	18%
Cc1cc(C(=O)N2Cc3ccc(C(=O)NCCC4CCCN4C)n3Cc3ccccc32)ccc1-c1ccccc1C(F)(F)F (stereo not shown) [Example 174, N-[2-(1-Methyl-2-pyrrolidinyl)ethyl]-10-{[2-methyl-2′-(trifluoromethyl)[1,1′-biphenyl]-4-yl]carbonyl}-10,11-dihydro-5H-pyrrolo[2,1-c][1,4]benzodiazepine-3-carboxamide]	7%
Cc1cc(C(=O)N2Cc3ccc(C(=O)N4CCN(C(=O)OC(C)(C)C)CC4)n3Cc3ccccc32)ccc1-c1ccccc1C(F)(F)F [Example 6, 4-[[10,11-Dihydro-10-[[2-methyl-2′-trifluoromethyl[1,1′-biphenyl]-4-yl]carbonyl]-5H-pyrrolo[2,1-c][1,4]benzodiazepin-3-yl]carbonyl]-1-piperazine-carboxylic acid, tert-butyl ester]	13%
Cc1cc(C(=O)N2Cc3ccc(C(=O)N4CCN(CCN5CCOCC5)CC4)n3Cc3ccccc32)ccc1-c1ccccc1C(F)(F)F [Example 216, (10-{[2-Methyl-2′-(trifluoromethyl)[1,1′-biphenyl]-4-yl]carbonyl}-10,11-dihydro-5H -pyrrolo[2,1-c][1,4]benzodiazepin-3-yl){4-[2-(4-morpholinyl)ethyl]-1-piperazinyl}methanone]	0%
C=CCN1CCN(C(=O)c2ccc3n2Cc2ccccc2N(C(=O)c2cc(Cl)c(-c4cccc(OC)c4)cc2OC)C3)CC1 [Example 226, (4-Allyl-1-piperazinyl){10-[(6-chloro-3,3′-dimethoxy[1,1′-biphenyl]-4-yl)carbonyl]-10,11-dihydro-5H-pyrrolo[2,1-c][1,4]benzodiazepin-3-yl}methanone]	10%
COc1ccccc1-c1ccc(C(=O)N2Cc3ccc(C(=O)N4CCN(CCN5CCOCC5)CC4)n3Cc3ccccc32)cc1OC [Example 214, {10-[(2,2′-Dimethoxy[1,1′-biphenyl]-4-yl)carbonyl]-10,11-dihydro-5H-pyrrolo[2,1-c][1,4]benzodiazepin-3-yl}{4-[2-(4-morpholinyl)ethyl]-1-piperazinyl}methanone]	11%
Cc1ccccc1-c1ccc(C(=O)N2Cc3ccc(C(=O)N4CCN(CCN(C)C)CC4)n3Cc3ccccc32)cc1C [Example 198, {4-[2-(Dimethylamino)ethyl]-1-piperazinyl}{10-[(2,2′-dimethyl[1,1′-biphenyl]-4-yl)carbonyl]-10,11-dihydro-5H-pyrrolo[2,1-c][1,4]benzodiazepin-3-yl}methanone]	19%
COc1cccc(-c2ccc(C(=O)N3Cc4ccc(C(=O)NCCN5CCCCC5)n4Cc4ccccc43)cc2OC)c1 [Example 159, 10-[(2,3′-Dimethoxy[1,1′-biphenyl]-4-yl)carbonyl]-N-[2-(1-piperidinyl)ethyl]-10,11-dihydro-5H-pyrrolo[2,1-c][1,4]benzodiazepine-3-carboxamide]	16%
Cc1ccccc1-c1ccc(C(=O)N2Cc3ccc(C(=O)N(C)C4CCN(C)C4)n3Cc3ccccc32)cc1 (stereo not shown) [Example 188, N-Methyl-10-[(2′-methyl[1,1′-biphenyl]-4-yl)carbonyl]-N-(1-methyl-3-pyrrolidinyl)-10,11-dihydro-5H-pyrrolo[2,1-c][1,4]benzodiazepine-3-carboxamide]	10%
COc1cc(-c2ccccc2C)c(Cl)cc1C(=O)N1Cc2ccc(C(=O)NCCC3CCCN3C)n2Cc2ccccc21 (stereo not shown) [Example 168, 10-[(6-Chloro-3-methoxy-2′-methyl[1,1′-biphenyl]-4-yl)carbonyl]-N-[2-(1-methyl-2-pyrrolidinyl)ethyl]-10,11-dihydro-5H-pyrrolo[2,1-c][1,4]benzodiazepine-3-carboxamide]	10%
COc1cccc(-c2ccc(C(=O)N3Cc4ccc(C(=O)N5CCN(C(C)C)CC5)n4Cc4ccccc43)cc2C)c1 [Example 235, (4-Isopropyl-1-piperazinyl){10-[(3′-methoxy-2-methyl[1,1′-biphenyl]-4-yl)carbonyl]-10,11-dihydro-5H-pyrrolo[2,1-c][1,4]benzodiazepin-3-yl}methanone]	17%
Cc1ccccc1-c1ccc(C(=O)N2Cc3ccc(C(=O)NCCC4CCCN4C)n3Cc3ccccc32)cc1C (stereo not shown) [Example 163, 10-[(2,2′-Dimethyl[1,1′-biphenyl]-4-yl)carbonyl]-N-[2-(1-methyl-2-pyrrolidinyl)ethyl]-10,11-dihydro-5H-pyrrolo[2,1-c][1,4]benzodiazepine-3-carboxamide]	13%
COc1ccccc1-c1ccc(C(=O)N2Cc3ccc(C(=O)N(C)C4CCN(C)C4)n3Cc3ccccc32)cc1 (stereo not shown) [Example 187, 10-[(2′-Methoxy[1,1′-biphenyl]-4-yl)carbonyl]-N-methyl-N-(1-methyl-3-pyrrolidinyl)-10,11-dihydro-5H-pyrrolo[2,1-c][1,4]benzodiazepine-3-carboxamide]	31%
COc1cc(C(=O)N2Cc3ccc(C(=O)N4CCN(CCN(C)C)CC4)n3Cc3ccccc32)ccc1-c1cccc2ccccc12 [Example 203, {4-[2-(Dimethylamino)ethyl]-1-piperazinyl}{10-[3-methoxy-4-(1-naphthyl)benzoyl]-10,11-dihydro-5H-pyrrolo[2,1-c][1,4]benzodiazepin-3-yl}methanone]	28%
COc1cc(C(=O)N2Cc3ccc(C(=O)N(C)C4CCN(C)C4)n3Cc3ccccc32)ccc1-c1cccc2ccccc12 (stereo not shown) [Example 192, 10-[3-Methoxy-4-(1-naphthyl)benzoyl]-N-methyl-N-(1-methyl-3-pyrrolidinyl)-10,11-dihydro-5H-pyrrolo[2,1-c][1,4]benzodiazepine-3-carboxamide]	28%
COc1cccc(-c2cc(OC)c(C(=O)N3Cc4ccc(C(=O)N(C)C5CCN(C)CC5)n4Cc4ccccc43)cc2Cl)c1 [Example 181, 10-[(6-Chloro-3,3′-dimethoxy[1,1′-biphenyl]-4-yl)carbonyl]-N-methyl-N-(1-methyl4-piperidinyl)-10,11-dihydro-5H-pyrrolo[2,1-c][1,4]benzodiazepine-3-carboxamide]	12%
